According to US9884854B2, “N-[(pyrimidinylamino)propanyl]-and N[(pyrazinylamino)proppanyl]arylcarboxamides” (Boehringer Ingelheim International GmbH, priority 2016, dated 2018):

How the values were obtained:
human orexin 2 receptor = molecular target: T1, human orexin 2 receptor (Homo sapiens, UniProt O43614); assay: Assay B: OX2R IP1 (in vitro OX2R potency); type: cell-based; settings: 0.5 nM Orexin A concentration
T1 construct: stably expressing the full-length human orexin 2 receptor and the aequorin photoprotein; expressed in transfected cells; host or cells: CHO-K1 (CHO-K1/hOx2), co-expressing aequorin
T1 sequence (O43614 1-444): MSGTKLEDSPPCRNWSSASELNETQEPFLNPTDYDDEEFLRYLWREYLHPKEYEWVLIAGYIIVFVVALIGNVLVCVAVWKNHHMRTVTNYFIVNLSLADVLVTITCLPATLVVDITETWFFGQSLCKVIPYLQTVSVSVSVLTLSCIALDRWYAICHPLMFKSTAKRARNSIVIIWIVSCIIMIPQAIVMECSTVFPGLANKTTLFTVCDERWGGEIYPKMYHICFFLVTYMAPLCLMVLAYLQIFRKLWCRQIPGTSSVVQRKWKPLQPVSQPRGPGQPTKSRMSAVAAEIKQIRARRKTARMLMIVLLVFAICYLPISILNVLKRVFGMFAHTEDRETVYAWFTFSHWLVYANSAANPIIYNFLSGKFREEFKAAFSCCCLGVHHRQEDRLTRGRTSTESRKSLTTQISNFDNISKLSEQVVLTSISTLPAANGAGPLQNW
Text: Activation of the orexin receptors expressed in cell lines results in an increase in intracellular IP3 concentration. IP1, a downstream metabolite of IP3, accumulates in cells following receptor activation and is stable in the presence of LiCl. Using Homogeneous Time-Resolved Fluorescence technology with Lumi4-Tb cryptate (commercially available from Cisbio Bioassay.) and a suitable fluorescence plate reader. […] Chem. Genomics 2009, 3, 22-32. This technique is used to characterize pharmacological modification of the orexin receptors.
B. In Vitro Testing of OX2R Potency: OX2R IP1
IP1 measurements are performed in CHO-K1 cells stably expressing the full-length human orexin 2 receptor and the aequorin photoprotein. Cells are cultivated in Ham's nutrient mixture F12 medium with 10% fetal calf serum, in a 37° C., 95% humidity and 5% CO2 incubator. The CHO-K1/hOx2 cell mass is expanded to larger cell numbers. The cells are obtained as frozen cells in cryo-vials and stored until use at −150° C. The viability of the cells after thawing is >90%. In preparation for the assay, 24 hours before the assay, the cells are thawed at 37° C. and immediately diluted with cell culture medium. After centrifugation, the cell pellet is resuspended in medium and then distributed into the assay plates with a density of 5000 cells/25 μL per well. The plates are incubated for one hour at room temperature to reduce edge effects before they are incubated for 24 hours at 37° C./5% CO2. Compounds are prepared by a 8-point serial dilution in DMSO and a final dilution step into assay buffer (HBSS with 20 mM HEPES, 0.1% BSA and 50 mM LiCl, pH 7.4) to ensure a final DMSO concentration of 1% in the assay. On the day of the assay, cells in the plate are washed twice with 60 μL assay buffer (20 μL buffer remained in the wells after washing), followed by adding 5 μL per well of compounds diluted in assay buffer. After 15 minutes of incubation at room temperature 5 μL per well of Orexin A peptide (final concentration: 0.5 nM) dissolved in assay buffer is added to the assay plate. The assay plate is incubated for 60 minutes at 37° C. Then 5 μl per well of Anti-IP1-Cryptate Tb solution and 5 μl per well of IP1-d2 dilution are added to all well of the plate and the plate is incubated for a further 60 minutes light protected at room temperature. The emission at 615 nm and 665 nm (Excitation wavelength: 320 nm) are measured using an EnVision reader (PerkinElmer). The ratio between the emission at 665 nm and 615 is calculated by the reader.
8-point four parametric non-linear curve fitting and determination of IC50 values and Hill slopes is performed using a regular analysis software e.g. AssayExplorer (Accelrys). In order to establish an agonist concentration independent parameter, Kb values are calculated using the following equation: IC50/((2+(A/EC50)n)^1/n−1) (with A=concentration agonist, EC50=EC50 agonist, n=Hill slope agonist) (see P. Leff, I. G. Dougall, Trends Pharmacol. Sci. 1993, 14(4), 110-112).
Kb values from Assay A (OX1R) and Assay B (OX2R) can then provide a selectivity ratio which is independent of the agonist (Orexin A) concentration.

[1] = Assay C: metabolic stability in human liver microsomes (Human MST); type: in vitro ADME; settings: pooled human liver microsomes, pH 7.6, 1 μM compound, 37° C., read-out: Human MST t1/2
Text: Stability in human liver microsomes refers to the susceptibility of compounds to biotransformation in the context of selecting and/or designing drugs with favorable pharmacokinetic properties. The primary site of metabolism for many drugs is the liver. Human liver microsomes contain the cytochrome P450s (CYPs), and thus represent a model system for studying drug metabolization in vitro. Enhanced stability in human liver microsomes is associated with several advantages, including increased bioavailability and longer half-life, which can enable lower and less frequent dosing of patients. Thus, enhanced stability in human liver microsomes is a favorable characteristic for compounds that are to be used for drugs.
C. Assessment of Metabolic Stability in Human Liver Microsomes (Human MST)
The metabolic stability of the compounds according to the invention may be investigated as follows:
The metabolic degradation of the test compound is assayed at 37° C. with pooled human liver microsomes. The final incubation volume of 100 μL per time point contains TRIS buffer pH 7.6 at room temperature (0.1 M), MgCl2 (5 mM), microsomal protein (1 mg/mL) and the test compound at a final concentration of 1 μM. Following a short pre-incubation period at 37° C., the reactions are initiated by addition of beta-nicotinamide adenine dinucleotide phosphate, reduced form (NADPH, 1 mM), and terminated by transferring an aliquot into solvent after different time points. After centrifugation (10000 g, 5 min), an aliquot of the supernatant is assayed by LC-MS/MS for the amount of parent compound. The half-life (t1/2) is determined by the slope of the semi-logarithmic plot of the concentration-time profile.

human MDR1 P-gp = assay: Assay D: efflux in MDCK cells transfected with the human MDR1 gene; type: in vitro ADME, canine; settings: dog; MDCK-MDR1 monolayers, pH 7.4, 37° C.; read-out: MDCK efflux ratio (BA/AB)
Experimental: The MDCK assay provides information on the potential of a compound to pass the blood brain barrier. Permeability measurements across polarized, confluent MDCK-MDR1 cell monolayers grown on permeable filter supports are used as an in vitro absorption model: apparent permeability coefficients (PE) of the compounds across the MDCK-MDR1 cell monolayers are measured (pH 7.4, 37° C.) in apical-to-basal (AB) and basal-to-apical (BA) transport direction. The AB permeability (PEAB) represents drug absorption from the blood into the brain and the BA permeability (PEBA) drug efflux from the brain back into the blood via both, passive permeability as well as active transport mechanisms mediated by efflux and uptake transporters that are expressed on the MDCK-MDR1 cells, predominantly by the overexpressed human MDR1 P-gp. Identical or similar permeabilities in both transport directions indicate passive permeation, vectorial permeability points to additional active transport mechanisms. Higher PEBA than PEAB (PEBA/PEAB>5) indicates the involvement of active efflux mediated by MDR1 P-gp, which might compromises the goal to achieve sufficient brain exposure. Therefore this assay provides valuable support for selection of compounds applicable for further in vivo testing. High permeability not limited by efflux at the blood brain barrier is a favourable characteristic for compounds that are to be used for drugs acting primarily in the CNS
D. Assessment of Efflux in Madin-Darby Canine Kidney (MDCK) Cells Transfected with the Human MDR1 Gene
Apparent permeability coefficients (PE) of the compounds across the MDCK-MDR1 cell monolayers are measured (pH 7.4, 37° C.) in apical-to-basal (AB) and basal-to-apical (BA) transport direction. AB permeability (PEAB) represents drug absorption from the blood into the brain and BA permeability (PEBA) drug efflux from the brain back into the blood via both passive permeability as well as active transport mechanisms mediated by efflux and uptake transporters that are expressed on the MDCK-MDR1 cells, predominantly by the overexpressed human MDR1 P-gp. The compounds are assigned to permeability/absorption classes by comparison of the AB permeabilities with the AB permeabilities of reference compounds with known in vitro permeability and oral absorption in the human. Identical or similar permeabilities in both transport directions indicate passive permeation, vectorial permeability points to additional active transport mechanisms. Higher PEBA than PEAB indicates the involvement of active efflux mediated by MDR1 P-gp. Active transport is concentration-dependently saturable.
MDCK-MDR1 cells (1-2×10e5 cells/1 cm2 area) are seeded on filter inserts (Costar transwell polycarbonate or PET filters, 0.4 μm pore size) and cultured (DMEM) for 7 days. Subsequently, the MDR1 expression is boosted by culturing the cells with 5 mM sodium butyrate in full medium for 2 days. Compounds are dissolved in appropriate solvent (like DMSO, 1-20 mM stock solutions). Stock solutions are diluted with HTP-4 buffer (128.13 mM NaCl, 5.36 mM KCl, 1 mM MgSO4, 1.8 mM CaCl2, 4.17 mM NaHCO3, 1.19 mM Na2HPO4×7H2O, 0.41 mM NaH2PO4×H2O, 15 mM HEPES, 20 mM glucose, 0.25% BSA, pH 7.4) to prepare the transport solutions (0.1-300 μM compound, final DMSO<=0.5%). The transport solution (TL) is applied to the apical or basolateral donor side for measuring A-B or B-A permeability (3 filter replicates), respectively. The receiver side contains the same buffer as the donor side. Samples are collected at the start and end of experiment from the donor and at various time intervals for up to 2 hours also from the receiver side for concentration measurement by HPLC-MS/MS or scintillation counting. Sampled receiver volumes are replaced with fresh receiver solution.

OX1R = molecular target: T2, OX1R (Homo sapiens, UniProt O43613); settings: cited from earlier work
T2 sequence (O43613 1-425): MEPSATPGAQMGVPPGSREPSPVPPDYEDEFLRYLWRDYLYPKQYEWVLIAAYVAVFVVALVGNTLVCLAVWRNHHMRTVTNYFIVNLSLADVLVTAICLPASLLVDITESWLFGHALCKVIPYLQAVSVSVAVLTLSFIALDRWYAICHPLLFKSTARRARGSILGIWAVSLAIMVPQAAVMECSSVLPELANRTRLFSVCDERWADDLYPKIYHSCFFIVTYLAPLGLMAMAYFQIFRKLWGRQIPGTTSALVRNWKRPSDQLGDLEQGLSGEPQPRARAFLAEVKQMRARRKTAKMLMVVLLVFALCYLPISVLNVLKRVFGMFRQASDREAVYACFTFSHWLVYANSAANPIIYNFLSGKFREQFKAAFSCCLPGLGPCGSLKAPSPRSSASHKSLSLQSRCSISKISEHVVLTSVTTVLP

OX2R = molecular target: T3, OX2R (Homo sapiens, UniProt O43614); settings: cited from earlier work
T3 sequence (O43614 1-444): T1 sequence (O43614 1-444)

[2] = as described in WO03/051872 (page 16-18)
[3] = corresponds to pKb described in WO03/051872

| SMILES | Kb (human orexin 2 receptor) | half-life at 1 μM [1] | efflux ratio (human MDR1 P-gp) | OX1R pKb (OX1R; [2]) | OX1R Kb (OX1R; [3]) | OX2R pKb (OX2R; [2]) | OX2R Kb (OX2R; [3]) |
| --- | --- | --- | --- | --- | --- | --- | --- |
| CCN(C(=O)c1cccc(Cl)c1-n1nccn1)[C@@H](C)CNc1ncc(C(F)(F)F)cn1 [Example 3] | 0.00627 µM | 1.4 h |  |  |  |  |  |
| Cc1nc(C(=O)N(C)CCNc2ncc(Br)cn2)c(-c2ccc(F)cc2)s1 [Example 6 in WO03/051872] |  |  | 0.8 | 6.4 to 7.4 | 400 to 40 nM | <6.6 to 7.4 | >250 to 40 nM |
| CCN(C(=O)c1cc(F)cc(F)c1-n1nccn1)[C@@H](C)CNc1ncc(C(F)(F)F)cn1 [Example 6] | 0.0531 µM | > 2 h |  |  |  |  |  |
